PubChem BioAssay (NCI)
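Five compound concentrations were applied to cells in 96-well plates for 48 hours; endpoints were derived by simple linear interpolation of the resulting dose-response curve. TGI: concentration producing complete growth inhibition.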 Where a SMILES comes first, the peptide text is derived from it. [ ]: non-standard residue; d: D form. The star is where a group is joined. ξ: configuration not given here. ξNMeF = CNC(Cc1ccccc1)C(=O)O; NMeV = CN[C@H](C(=O)O)C(C)C; Boc = CC(C)(C)OC(=O)*; OBn = c1ccc(CO*)cc1

Legend:
Test in all cases: NCI-60 cell line screen, 48 h
[1] = test system: A498 renal
[2] = test system: A549 NSCLC
[3] = test system: EKVX NSCLC
[4] = test system: HOP-92 NSCLC
[5] = test system: LOX IMVI melanoma
[6] = test system: M14 melanoma
[7] = test system: MDA-N
[8] = test system: NCI-H522 lung
[9] = test system: RXF 393 renal
[10] = test system: SN12C renal
[11] = test system: SR leukemia
[12] = test system: T-47D breast
[13] = test system: U251 CNS
[14] = test system: UACC-257 melanoma
[15] = test system: UACC-62 melanoma
[16] = test system: SK-MEL-5 melanoma
[17] = test system: HS 578T breast

Row | Structure (SMILES) | TGI [1] | TGI [2] | TGI [3] | TGI [4] | TGI [5] | TGI [6] | TGI [7] | TGI [8] | TGI [9] | TGI [10] | TGI [11] | TGI [12] | TGI [13] | TGI [14] | TGI [15] | TGI [16] | TGI [17]
1 | COC(=O)/C=C/CCC#Cc1ccccc1C#CCC/C=C/C(=O)OC | > 100 µM | > 100 µM | > 100 µM | 85.4 µM | 64 µM | > 100 µM | > 100 µM | 18.6 µM | 27 µM | 55.7 µM | > 100 µM | 97.9 µM | > 100 µM | > 100 µM | > 100 µM | – | –
2 | CC(C)[C@@H](C(=O)N(C)[C@H](C(=O)N1CCC[C@H]1C(=O)OCc1ccccc1)C(C)C)N(C)C(=O)C(Cc1ccccc1)N(C)C(=O)[C@H](NC(=O)OC(C)(C)C)C(C)C (stereo not given in full) (Boc-[dV][ξNMeF][NMeV][NMeV]P-OBn) | > 31.6 µM | > 31.6 µM | > 31.6 µM | > 31.6 µM | > 31.6 µM | > 100 µM | – | > 100 µM | > 31.6 µM | > 100 µM | > 31.6 µM | – | > 31.6 µM | > 31.6 µM | > 31.6 µM | 23 µM | –
3 | C=C(Cl)/C(=C\Cl)CCC(Cl)C(C)C (stereo not given) (tested in a mixture with another compound) | 34.6 µM | > 100 µM | 33.3 µM | 28.6 µM | 3.67 µM | 32.7 µM | 30.4 µM | 16.8 µM | 23.6 µM | 31.3 µM | > 100 µM | – | 30.1 µM | 27.2 µM | 25.3 µM | 27.6 µM | 31.9 µM
4 | CN(C)c1ccc(C=Nc2ccc(-c3nc4ccccc4s3)cc2)cc1 | 37.1 µM | > 100 µM | > 100 µM | 59.4 µM | 94.8 µM | > 100 µM | > 100 µM | 51.2 µM | 52.2 µM | > 100 µM | > 100 µM | 73.9 µM | > 100 µM | 82.8 µM | 31.7 µM | 44.8 µM | –
5 | COC(=O)C1(C(=O)OC)N=C(C)OC1c1ccccc1O (stereo not given) | > 100 µM | > 100 µM | > 100 µM | > 100 µM | > 100 µM | > 100 µM | – | – | > 100 µM | > 100 µM | > 100 µM | > 100 µM | > 100 µM | > 100 µM | > 100 µM | > 100 µM | –
6 | O=C(OCc1ccccc1)C(Cc1ccc(OCc2ccccc2)cn1)NC(=O)C(F)(F)F (stereo not given) | > 100 µM | > 100 µM | > 100 µM | > 100 µM | > 100 µM | – | > 100 µM | > 100 µM | > 100 µM | > 100 µM | > 100 µM | – | > 100 µM | > 100 µM | – | > 100 µM | > 100 µM
7 | C[N+](C)(C)CC(=O)N/N=C(\Cc1nc2ccc([N+](=O)[O-])cc2[nH]c1=O)C(=O)Nc1nc2ccc([N+](=O)[O-])cc2s1 | > 100 µM | > 100 µM | > 100 µM | > 100 µM | > 100 µM | > 100 µM | – | 79.8 µM | > 100 µM | > 100 µM | > 100 µM | > 100 µM | > 100 µM | > 100 µM | > 100 µM | > 100 µM | –
8 | Cc1cc(C)c(NS(=O)c2cccc(C(F)(F)F)c2)c(C)c1 (stereo not given) | > 100 µM | > 100 µM | – | > 100 µM | – | > 100 µM | > 100 µM | – | > 100 µM | > 100 µM | > 100 µM | > 100 µM | > 100 µM | > 100 µM | – | – | –
9 | CCOC(=O)c1ncn(CCc2ccc(Cl)cc2)c1C | > 100 µM | > 100 µM | > 100 µM | > 100 µM | > 100 µM | > 100 µM | > 100 µM | > 100 µM | > 100 µM | > 100 µM | > 100 µM | – | > 100 µM | > 100 µM | > 100 µM | > 100 µM | > 100 µM
10 | C=CCCCCCCCCCP(=O)(c1ccccc1)c1ccc2c(c1)OCCOCCOCCOCCO2 (stereo not given) | 27.7 µM | 28.1 µM | 34.2 µM | > 100 µM | 29 µM | > 100 µM | – | 24.5 µM | 27.4 µM | 32.4 µM | 22.8 µM | – | 29.3 µM | 30.6 µM | 29.4 µM | 24.2 µM | –
11 | Cc1ccc(Nc2cccc3c2C(=O)c2cccc(Nc4ccc(C)cc4S(=O)(=O)O)c2C3=O)c(S(=O)(=O)O)c1 | > 100 µM | > 100 µM | > 100 µM | – | – | > 100 µM | – | > 100 µM | > 100 µM | > 100 µM | > 100 µM | – | > 100 µM | > 100 µM | > 100 µM | > 100 µM | –
12 | COc1cccc(NC(=O)CSc2nnc(Cc3ccccc3)o2)c1 | > 100 µM | > 100 µM | – | – | > 100 µM | > 100 µM | – | > 100 µM | > 100 µM | > 100 µM | – | – | > 100 µM | > 100 µM | > 100 µM | > 100 µM | –
13 | O=C(c1cscc1CCc1ccccc1)c1cscc1CCc1ccccc1 | > 100 µM | > 100 µM | > 100 µM | – | > 100 µM | > 100 µM | > 100 µM | > 100 µM | > 100 µM | > 100 µM | > 100 µM | > 100 µM | > 100 µM | > 100 µM | > 100 µM | > 100 µM | –
14 | Cc1ccc(N2C(=O)C3c4[nH]c5ccc(C)cc5c4C4CCC(C(C)(C)C)CC4C3C2=O)cc1 (stereo not given) | – | 32.8 µM | 43.4 µM | 52.1 µM | 55.6 µM | > 100 µM | 70.1 µM | 39.4 µM | – | 27.3 µM | – | 25.9 µM | 27.7 µM | > 100 µM | 30 µM | > 100 µM | 44 µM
15 | NS(=O)(=O)c1nnc(NS(=O)(=O)c2ccccc2[N+](=O)[O-])s1 | > 100 µM | > 100 µM | > 100 µM | > 100 µM | – | > 100 µM | – | > 100 µM | > 100 µM | – | > 100 µM | > 100 µM | > 100 µM | – | > 100 µM | > 100 µM | > 100 µM
